Test results: PubChem BioAssay AID248 (DTP/NCI, 2004)
Several values for one entry are separate records, joined by “and”; a condition that tells them apart may be missing. Equal entries are not always repeated. Toxic doses and inconclusive results are not listed. Cut-off read from the data, not from the text of the source: active = T/C of 150% or more; inactive = T/C below 125%.

Test system: L1210 leukemia ip in BDF1 mice, survival T/C
Experiment: NCI In Vivo Anticancer Drug Screen. Data for tumor model L1210 Leukemia (intraperitoneal) in B6D2F1 (BDF1) mice
Settings: endpoint: mean survival time, higher = longer survival
Procedure, shortened: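 Survival endpoint. Drug-treated group vs vehicle group, expressed as T divided by C. Tumor passaged by transplantation.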

[1] = dose: 100.0 mg/kg/injection, schedule: Q01DX009 (ip), vehicle: saline with Tween-80
[2] = dose: 100.0 mg/kg/injection, schedule: Q04DX003 (ip), vehicle: Klucel (hydroxypropylcellulose) (HPC)
[3] = dose: 200.0 mg/kg/injection, schedule: Q01DX009 (ip), vehicle: saline with Tween-80
[4] = dose: 200.0 mg/kg/injection, schedule: Q04DX003 (ip), vehicle: Klucel (hydroxypropylcellulose) (HPC)
[5] = dose: 400.0 mg/kg/injection, schedule: Q01DX009 (ip), vehicle: saline with Tween-80
[6] = dose: 400.0 mg/kg/injection, schedule: Q04DX003 (ip), vehicle: Klucel (hydroxypropylcellulose) (HPC)
[7] = dose: 100.0 mg/kg/injection, schedule: Q01DX001 (ip), vehicle: carboxymethylcellulose (CMC)
[8] = dose: 200.0 mg/kg/injection, schedule: Q01DX001 (ip), vehicle: carboxymethylcellulose (CMC)
[9] = dose: 400.0 mg/kg/injection, schedule: Q01DX001 (ip), vehicle: carboxymethylcellulose (CMC)
[10] = dose: 100.0 mg/kg/injection, schedule: Q04DX003 (ip), vehicle: saline
[11] = dose: 50.0 mg/kg/injection, schedule: Q01DX001 (ip), vehicle: carboxymethylcellulose (CMC)
[12] = dose: 100.0 mg/kg/injection, schedule: Q04DX003 (ip), vehicle: saline with Tween-80
[13] = dose: 200.0 mg/kg/injection, schedule: Q04DX003 (ip), vehicle: saline with Tween-80
[14] = dose: 400.0 mg/kg/injection, schedule: Q04DX003 (ip), vehicle: saline with Tween-80
[15] = dose: 100.0 mg/kg/injection, schedule: Q01DX001 (ip), vehicle: saline
[16] = dose: 200.0 mg/kg/injection, schedule: Q01DX001 (ip), vehicle: saline
[17] = dose: 100.0 mg/kg/injection, schedule: Q01DX009 (ip), vehicle: Klucel (hydroxypropylcellulose) (HPC)
[18] = dose: 75.0 mg/kg/injection, schedule: Q01DX001 (ip), vehicle: saline
[19] = dose: 150.0 mg/kg/injection, schedule: Q01DX001 (ip), vehicle: saline

Measured: T/C

COc1ccc(OC(=O)Nc2ccc(SC)cc2)cc1
inactive: [1] 104 % of control | [2] 96 % of control | [3] 90 % of control | [4] 96 % of control | [5] 98 % of control | [6] 102 % of control

CC1CC(NCCO)CC(C)(C)C1 (configuration not stated)
inactive: dose: 75.0 mg/kg/injection, schedule: Q01DX001 (ip), vehicle: acid diluted with saline 122 % of control | dose: 150.0 mg/kg/injection, schedule: Q01DX001 (ip), vehicle: acid diluted with saline 100 % of control

O/N=C1\c2cc(Cl)ccc2-c2c(Cl)cc(Cl)cc21
inactive: [7] 115 % of control | [8] 100 % of control | [9] 97 % of control

N#C/C(=C\c1ccncc1)c1ccccc1Cl
inactive: dose: 100.0 mg/kg/injection, schedule: Q01DX001 (ip), vehicle: other 91 % of control | dose: 200.0 mg/kg/injection, schedule: Q01DX001 (ip), vehicle: other 89 % of control | dose: 400.0 mg/kg/injection, schedule: Q01DX001 (ip), vehicle: other 96 % of control

O=C(O)CCCN1C/C(=C\c2ccccc2)C(=O)C1=O
inactive: [10] 104 % of control | dose: 200.0 mg/kg/injection, schedule: Q04DX003 (ip), vehicle: saline 101 % of control | dose: 400.0 mg/kg/injection, schedule: Q04DX003 (ip), vehicle: saline 98 % of control

CCC(C#N)=C1CCCCC1
inactive: dose: 25.0 mg/kg/injection, schedule: Q01DX009 (ip), vehicle: saline with Tween-80 91 % of control | dose: 50.0 mg/kg/injection, schedule: Q01DX009 (ip), vehicle: saline with Tween-80 99 % of control | [1] 97 % of control | [10] 100 % of control

C1=Cc2ccccc2Sc2ccccc21
inactive: [11] 98 % of control | [8] 98 % of control

O=C(O)C1C(c2ccccc2)CC(=O)N1c1ccc(Cl)cc1 (configuration not stated)
inactive: dose: 100.0 mg/kg/injection, schedule: Q04DX002 (ip), vehicle: Klucel (hydroxypropylcellulose) (HPC) 102 % of control | dose: 200.0 mg/kg/injection, schedule: Q04DX002 (ip), vehicle: Klucel (hydroxypropylcellulose) (HPC) 91 % of control | dose: 400.0 mg/kg/injection, schedule: Q04DX002 (ip), vehicle: Klucel (hydroxypropylcellulose) (HPC) 94 % of control

CS(=O)(=O)c1ccc(Br)cc1
inactive: [1] 103 % of control | [12] 90 % of control | [3] 102 % of control | [13] 98 % of control | [5] 102 % of control | [14] 96 % of control

O=C(CCCCC(=O)N/N=C\c1ccccc1O)N/N=C\c1ccccc1O
inactive: [12] 87 % of control | [13] 89 % of control | [14] 87 % of control

Cc1cs[n+](C)c1
inactive: [15] 94 % of control | [16] 97 % of control

CCOc1ccc(NC(=O)Nc2cccc(C(F)(F)F)c2)cc1
inactive: [17] 91 % of control | dose: 200.0 mg/kg/injection, schedule: Q01DX009 (ip), vehicle: Klucel (hydroxypropylcellulose) (HPC) 96 % of control | dose: 400.0 mg/kg/injection, schedule: Q01DX009 (ip), vehicle: Klucel (hydroxypropylcellulose) (HPC) 93 % of control

Cc1ccc(S(=O)(=O)OCC2(COS(=O)(=O)c3ccc(C)cc3)CCC2(COS(=O)(=O)c2ccc(C)cc2)COS(=O)(=O)c2ccc(C)cc2)cc1
inactive: dose: 50.0 mg/kg/injection, schedule: Q01DX009 (ip), vehicle: saline 97 % of control | [18] 93 % of control | dose: 100.0 mg/kg/injection, schedule: Q01DX009 (ip), vehicle: saline 89 % of control | [19] 96 % of control | dose: 200.0 mg/kg/injection, schedule: Q01DX009 (ip), vehicle: saline 89 % of control | dose: 300.0 mg/kg/injection, schedule: Q01DX001 (ip), vehicle: saline 93 % of control

COc1cc(/C=C(/C#N)[N+](=O)[O-])ccc1O
inactive: dose: 3.12 mg/kg/injection, schedule: Q01DX009 (ip), vehicle: DMSO 93 % of control | dose: 6.25 mg/kg/injection, schedule: Q01DX009 (ip), vehicle: DMSO 91 % of control | dose: 12.5 mg/kg/injection, schedule: Q01DX009 (ip), vehicle: DMSO 94 % of control | dose: 12.5 mg/kg/injection, schedule: Q04DX003 (ip), vehicle: DMSO 102 % of control | dose: 25.0 mg/kg/injection, schedule: Q01DX009 (ip), vehicle: DMSO 89 % of control | dose: 25.0 mg/kg/injection, schedule: Q04DX003 (ip), vehicle: DMSO 114 % of control | dose: 50.0 mg/kg/injection, schedule: Q01DX009 (ip), vehicle: DMSO 93 % of control | dose: 50.0 mg/kg/injection, schedule: Q04DX003 (ip), vehicle: DMSO 101 % of control

CCC1(/C=C/C(C)C)C(=O)NC(=O)NC1=O
inactive: [18] 105 % of control | [19] 93 % of control

O=c1[nH]nc(-c2ccncc2)s1
inactive: dose: 20.0 mg/kg/injection, schedule: Q04DX003 (ip), vehicle: saline 101 % of control | dose: 40.0 mg/kg/injection, schedule: Q04DX003 (ip), vehicle: saline 96 % of control | [18] 94 % of control | dose: 75.0 mg/kg/injection, schedule: Q04DX003 (ip), vehicle: saline 96 % of control | [10] 98 % of control

FC1(F)SC2c3ccccc3CCC2C1(F)F (configuration not stated)
inactive: [2] 96 % of control | [4] 95 % of control | [6] 102 % of control

O=C(CCN(Cc1ccccc1)Cc1ccccc1)c1csc2ccccc12
inactive: [7] 96 % of control | [8] 89 % of control | [9] 94 % of control

CC(=O)NCCCc1c(C)nc(N)[nH]c1=O
inactive: dose: 62.5 mg/kg/injection, schedule: Q01DX001 (ip), vehicle: Klucel (hydroxypropylcellulose) (HPC) 102 % of control | dose: 125.0 mg/kg/injection, schedule: Q01DX001 (ip), vehicle: Klucel (hydroxypropylcellulose) (HPC) 102 % of control | dose: 250.0 mg/kg/injection, schedule: Q01DX001 (ip), vehicle: Klucel (hydroxypropylcellulose) (HPC) 102 % of control

Clc1ncnc2scnc12
inactive: [11] 102 % of control | [7] 91 % of control | [8] 98 % of control

O=C(NC(=S)Nc1ccc(Cl)cc1)c1ccccc1
inactive: dose: 25.0 mg/kg/injection, schedule: Q01DX009 (ip), vehicle: Klucel (hydroxypropylcellulose) (HPC) 95 % of control | dose: 50.0 mg/kg/injection, schedule: Q01DX009 (ip), vehicle: Klucel (hydroxypropylcellulose) (HPC) 93 % of control | [17] 93 % of control and 89 % of control

S=C(Cc1ccccc1)NC1CCCCC1
inactive: [2] 103 % of control | [4] 101 % of control | [6] 95 % of control

CN(C)Cc1ccccc1COC(=O)c1ccc([N+](=O)[O-])cc1
inactive: dose: 75.0 mg/kg/injection, schedule: Q04DX002 (ip), vehicle: Klucel (hydroxypropylcellulose) (HPC) 97 % of control | dose: 150.0 mg/kg/injection, schedule: Q04DX002 (ip), vehicle: Klucel (hydroxypropylcellulose) (HPC) 105 % of control | dose: 300.0 mg/kg/injection, schedule: Q04DX002 (ip), vehicle: Klucel (hydroxypropylcellulose) (HPC) 97 % of control

CS(=O)(=O)C(=O)O
inactive: [15] 96 % of control | [16] 101 % of control | dose: 400.0 mg/kg/injection, schedule: Q01DX001 (ip), vehicle: saline 98 % of control

CCCCCCCCCCCCCCCCSSCCCCCCCCCCCCCCCC
inactive: [7] 93 % of control | [1] 92 % of control | [8] 95 % of control | [3] 95 % of control | [9] 95 % of control | [5] 87 % of control

CC(C)Cc1ncc(CCCN=C(N)N)[nH]c1=O
inactive: dose: 12.5 mg/kg/injection, schedule: Q04DX002 (ip), vehicle: saline with Tween-80 106 % of control | dose: 25.0 mg/kg/injection, schedule: Q04DX002 (ip), vehicle: saline with Tween-80 98 % of control | dose: 50.0 mg/kg/injection, schedule: Q04DX002 (ip), vehicle: saline with Tween-80 95 % of control | dose: 100.0 mg/kg/injection, schedule: Q04DX002 (ip), vehicle: saline with Tween-80 103 % of control

OCC1OC(n2cc(Br)c3c(NO)ncnc32)C(O)C1O (configuration not stated)
inactive: dose: 5.0 mg/kg/injection, schedule: Q01DX001 (ip), vehicle: saline 103 % of control | dose: 10.0 mg/kg/injection, schedule: Q01DX001 (ip), vehicle: saline 101 % of control
